Measurements published in patent US20180236105A1, “METHODS FOR TREATING NEURODEGENERATIVE DISEASES USING GENE THERAPY TO DELAY DISEASE ONSET AND PROGRESSION WHILE PROVIDING COGNITIVE PROTECTION” (UNIVERSITY OF IOWA RESEARCH FOUNDATION, priority 2015, published 2018).
Blank lines part the entries; values can stand above or below the molecule they belong to.

What was measured:
CLN2−/− dogs = test: Cerebrospinal fluid TPP1 enzyme activity assay; format: in vivo, dog; conditions: for CSF TPP1 activity after introduction of MMF: with cyclosporine and rAAV.caTPP1
From the text: Long-haired miniature Dachshunds were bred and housed at the University of Missouri in facilities overseen by the Office of Animal Resources (OAR). TPP1-null animals were generated from heterozygous breeding (Awano, 2006). All puppies were genotyped by PCR. In addition to the standard care provided by the OAR, the dogs were socialized on a daily basis throughout the study. All procedures involving dogs were reviewed and approved by the University of Missouri Animal Care and Use Committee and conformed to the National Institutes of Health Guide for the Care and Use of Laboratory Animals. Intraventricular infusions were performed over 25 minutes using the Brainsight™ neuronavigation system equipped with a 26 gauge 12 cm needle. Cyclosporine 10 mg/kg twice daily by mouth was administered to all of the dogs in this study starting one to two weeks prior to the gene therapy vector administration. The dose was gradually tapered after 2 months to once daily, which was continued for the duration of the study. A 10-20 mg/kg daily dose by mouth of mycophenolate mofetil (MMF) was instituted, as indicated in the results, and tapered after 2 to several months depending on tolerability.
TPP1 activity was assayed via a modification of previously described methods (Chang et al., 2008; Tian et al., 2006). Samples were homogenized in 300 μl ice-cold homogenization buffer (0.1% Triton X-100 in normal saline with complete protease inhibitor cocktail, Roche, Mannheim, Germany). Insoluble material was removed by centrifugation at 21×10^3 rcf at 4° C.×15 minutes, and protein quantified by DC Protein Assay (Biorad, Hercules, Calif.). […] Plates were read in a Safire 2 microplate reader (Tecan., Mannedorf, Switzerland) at 37° C. using the 460-nm emission filter. […]
Samples were concentrated 3.5-fold using Amicon Ultra-0.5 Centrifugal filter (Ultracel-10K. Millipore Corporation) at 21×10^3 rcf for 5 minutes at 4° C. Activated TPP1 was quantified as in tissue samples.

[1] = test system: Cln2−/− mouse embryo fibroblast cells; test: caTPP1 neutralization antibody assay (NAbs in dog CSF/serum); format: cell-based
Procedure: To assess neutralizing Abs (Nabs) in CSF, Cln2−/− mouse embryo fibroblast cells were used. Sixteen hours before the assay, 1.0×10^5 cells/well were plated onto 24 wells plate the day before, and dog CSF was heat inactivated at 56° C. for 30 minutes, diluted 1:10, and then pre-incubated with 1.75 nM of TPP1 at 37° C. for one hour. The mixture was applied to cells for three hours at 37° C. after which the cells were washed with 37° C. HBSS (Ca^2+ and Mg^2+) and then homogenized in 100 μl of ice cold homogenization buffer-0.1% TritonX-100 in normal saline with complete protease inhibitor cocktail (Roche, Mannheim, Germany). Insoluble material was removed by centrifugation at 21×10^3 rcf at 4° C. for 10 minutes and TPP1 activity detected as described above. The results were calculated as percentage of activity obtained from CSF collected prior to vector administration.

dog disease model = conditions: cited from earlier work
[2] = MMF 5 days prior to rAAV.caTPP1 delivery, DC018

- CSF TPP1 activity (CLN2−/− dogs; [2]): robust and sustained
- CSF TPP1 activity after introduction of MMF (CLN2−/− dogs; MMF by 33 days post-vector, DC015, DC016): increase in CSF TPP1 activity
- anti-TPP1 antibodies [1, 2]: did not appear
- anti-TPP1 Ab titers ([1]; MMF by 33 days post-vector, with cyclosporine and rAAV.caTPP1): reduction in anti-TPP1 Ab titers
Molecule: COc1c(C)c2c(c(O)c1C/C=C(\C)CCC(=O)OCCN1CCOCC1)C(=O)OC2 [MMF, mycophenolate mofetil]
- CSF TPP1 activity after introduction of MMF (CLN2−/− dogs; MMF from 44 days post-vector, DC013, DC014): did not result in a recovery of TPP1 activity
- anti-TPP1 immune responses ([1]; MMF at the time of or before AAV delivery): reduced, inhibited or dramatically delayed

B1: recombinant human TPP1: recombinant human TPP1 infused into the lumbar subarachnoid space or lateral ventricle (Vuillemenot et al., 2015) (protein, UniProt O14773 196-563, looked up)
Tripeptidyl-peptidase 1: LHLGVTPSVIRKRYNLTSQDVGSGTSNNSQACAQFLEQYFHDSDLAQFMRLFGGNFAHQASVARVVGQQGRGRAGIEASLDVQYLMSAGANISTWVYSSPGRHEGQEPFLQWLMLLSNESALPHVHTVSYGDDEDSLSSAYIQRVNTELMKAAARGLTLLFASGDSGAGCWSVSGRHQFRPTFPASSPYVTTVGGTSFQEPFLITNEIVDYISGGGFSNVFPRPSYQEEAVTKFLSSSPHLPPSSYFNASGRAYPDVAALSDGYWVVSNRVPIPWVSGTSASTPVFGGILSLINEHRILSGRPPLGFLNPRLYQQHGAGLFDVTRGCHESCLDEEVEGQGFCSGPGWDPVTGWGTPNFPALLKTLLNP
- anaphylactic reactions (dog disease model; bolus infusion): Anaphylactic reactions were noted
- immune responses to recombinant protein (dog disease model; infused into the lumbar subarachnoid space or lateral ventricle): robust anti-TPP1 responses
